Assay results: article PMC9301601 (Frontiers in Pharmacology, 2022)

System: hiPSC-CMs
Experiment: Action potential recording in hiPSC-CMs, whole-cell patch-clamp (current-clamp)
Format: cell-based, human
Settings: LPV-treated hiPSC-CMs, Figure 6H

Cc1cccc(C)c1OCC(=O)N[C@@H](Cc1ccccc1)[C@@H](O)C[C@H](Cc1ccccc1)NC(=O)[C@H](C(C)C)N1CCCNC1=O [LPV, lopinavir]
Interval (spontaneous rate interval): 1.4 ± 0.3 s
